35 compounds from ChEMBL document CHEMBL4411288, “Design, synthesis and biological evaluation of novel 7-amino-[1,2,4]triazolo[4,3-f]pteridinone, and 7-aminotetrazolo[1,5-f]pteridinone derivative as potent antitumor agents” (Eur J Med Chem, 2019) can be followed below.

pIC50: −log10 of the molar value. Bounds are passed on as bounds.

In test [1] the test system is PC-3. The test is described as follows: Cytotoxicity against human PC3 cells assessed as reduction in cell viability after 72 hrs by MTT assay. The note with it: PC-3, 72 h. The test is classed as functional, cell-based. (Formazan colour is commonly taken as a measure of viable cells.)
Test [2] has as its system MDA-MB-231. The test is described as follows: cells. The note with it: Homo sapiens, MDA-MB-231, 72 h.
Description: Cytotoxicity against human MDA-MB-231 cells assessed as reduction in cell viability after 72 hrs by MTT assay
In test [3] the test system is MCF7. The test is described as follows: cells. The note with it: Homo sapiens, MCF7, 72 h.
Description: Cytotoxicity against human MCF7 cells assessed as reduction in cell viability after 72 hrs by MTT assay
The test system of test [4] is A549. The test is described as follows: Cytotoxicity against human A549 cells assessed as reduction in cell viability after 72 hrs by MTT assay. In kind it is functional, cell-based. The note with it: A549, 72 h.
Test [5] relates to HCT-116. Description: Cytotoxicity against human HCT116 cells assessed as reduction in cell viability after 72 hrs by MTT assay. The test is classed as functional, cell-based. The note with it: HCT-116, 72 h.
The target of test [6] is Serine/threonine-protein kinase PLK1 (Homo sapiens) (UniProt P53350). The test is described as follows: Inhibition of recombinant human N-terminal His6-tagged PLK1 expressed in baculovirus infected Sf21 insect cells at 1 uM using FAM-labelled peptide as substrate preincubated for 10 mins followed by substrate addition measured after 1 hr relative to control.
Sequence of Serine/threonine-protein kinase PLK1 (Homo sapiens) (P53350 whole entry): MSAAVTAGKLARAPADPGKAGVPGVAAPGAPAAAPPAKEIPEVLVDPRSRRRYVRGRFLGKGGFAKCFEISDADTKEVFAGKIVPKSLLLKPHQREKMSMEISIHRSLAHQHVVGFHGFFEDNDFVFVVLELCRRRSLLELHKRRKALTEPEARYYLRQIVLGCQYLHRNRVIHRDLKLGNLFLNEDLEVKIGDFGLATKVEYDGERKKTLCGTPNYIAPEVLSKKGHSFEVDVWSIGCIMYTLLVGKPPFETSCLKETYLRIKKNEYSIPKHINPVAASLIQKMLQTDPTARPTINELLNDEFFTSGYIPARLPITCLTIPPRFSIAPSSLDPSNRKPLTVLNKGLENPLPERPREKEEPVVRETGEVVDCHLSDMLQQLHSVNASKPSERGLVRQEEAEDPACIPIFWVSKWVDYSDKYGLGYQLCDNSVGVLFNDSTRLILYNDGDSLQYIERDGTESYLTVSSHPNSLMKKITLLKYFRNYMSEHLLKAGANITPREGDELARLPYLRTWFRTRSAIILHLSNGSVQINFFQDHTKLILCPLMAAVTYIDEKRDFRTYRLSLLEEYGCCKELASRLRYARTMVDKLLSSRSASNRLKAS

In general, pIC50 refers to the negative decadic logarithm of the IC50, by convention in mol/L. Regarding `Cc1nnc2c(=O)n(C3CCCC3)c3nc(Nc4ccc(N5CCCCC5)cc4)ncc3n12`, the pIC50 in test [1] is less than 4.30; in test [2], 5.20; in test [3], less than 4.30; in test [4], 5.28; in test [5], 4.72.

For `O=c1c2nncn2c2cnc(Nc3ccc(N4CCSCC4)cc3)nc2n1C1CCCC1`, the negative logarithm of the IC50 (pIC50) was less than 4.30 in test [1]; 5.19 in test [2]; less than 4.30 in test [3]; 5.67 in test [4]; 4.92 in test [5].

Regarding `O=c1c2nnnn2c2cnc(Nc3ccc(N4CCN(CCO)CC4)cc3)nc2n1C1CCCC1`, the negative-log IC50 (pIC50) in test [1] is less than 4.30; in test [2], less than 4.30; in test [3], 5.64; in test [4], 5.41; in test [5] it was less than 4.30.

By inhibition is commonly meant the share of the control response that was lost under treatment. For `CN1CCN(c2ccc(Nc3ncc4c(n3)n(C3CCCC3)c(=O)c3nnnn34)cc2)CC1`, the negative logarithm of the IC50 (pIC50) in test [1] is 5.42; in test [2] it was 4.80; in test [3], less than 4.30; in test [4], 5.90; in test [5], 4.72. In test [6], the inhibition amounted to 19.3%.

In the case of `O=c1c2nncn2c2cnc(Nc3ccc(NC4CCCC4)cc3)nc2n1C1CCCC1`, the pIC50 in test [1] was less than 4.30; in test [2] it was less than 4.30; in test [3], less than 4.30; in test [4], less than 4.30; in test [5], 4.67.

For the compound `CN1CCN(C2CCN(c3ccc(Nc4ncc5c(n4)n(C4CCCC4)c(=O)c4nncn45)cc3)CC2)CC1`, the pIC50 in test [1] was 4.87; in test [2], less than 4.30; in test [3], less than 4.30; in test [4], 5.53; in test [5], 5.03.

For the compound `O=c1c2nnnn2c2cnc(Nc3ccc(N4CCCC4)cc3)nc2n1C1CCCC1`, the pIC50 in test [1] is less than 4.30; in test [2], less than 4.30; in test [3], less than 4.30; in test [4] it was 5.10; in test [5], less than 4.30.

As to `Cc1nnc2c(=O)n(C3CCCC3)c3nc(Nc4ccc(N5CCC(O)CC5)cc4)ncc3n12`, the pIC50 is less than 4.30 in test [1]; less than 4.30 in test [2]; less than 4.30 in test [3]; 4.66 in test [4]; 4.74 in test [5].

With `O=c1c2nncn2c2cnc(Nc3ccc(N4CCCCC4)cc3)nc2n1C1CCCC1`, the pIC50 was less than 4.30 in test [1]; 5.41 in test [2]; less than 4.30 in test [3]; 5.51 in test [4]; 4.70 in test [5].

In the case of `Cc1nnc2c(=O)n(C3CCCC3)c3nc(Nc4ccc(N5CCSCC5)cc4)ncc3n12`, the pIC50 was less than 4.30 in test [1]; less than 4.30 in test [2]; less than 4.30 in test [3]; 5.14 in test [4]; 5.24 in test [5].

On to `CC(=O)c1c(C)c2cnc(Nc3ccc(N4CCNCC4)cn3)nc2n(C2CCCC2)c1=O` [PALBOCICLIB], for which the pIC50 is 5.66 in test [1]; 5.46 in test [2]; 5.39 in test [3]; 5.88 in test [4]; 5.05 in test [5].

As to `O=c1c2nnnn2c2cnc(Nc3ccc(N4CCCCC4)cc3)nc2n1C1CCCC1`, the pIC50 is less than 4.30 in test [1]; less than 4.30 in test [2]; less than 4.30 in test [3]; 5.94 in test [4]; less than 4.30 in test [5].

Turning to `CN1CCN(C2CCN(c3ccc(Nc4ncc5c(n4)n(C4CCCC4)c(=O)c4nnnn45)cc3)CC2)CC1`, the pIC50 in test [1] was less than 4.30; in test [2], 5.24; in test [3], less than 4.30; in test [4], 5.89; in test [5], 5.12.

As for `CCN1CCN(c2ccc(N(C(C)=O)c3ncc4c(n3)n(C3CCCC3)c(=O)c3nnc(C)n34)cc2)CC1`, the pIC50 was less than 4.30 in test [1]; less than 4.30 in test [2]; less than 4.30 in test [3]; 4.69 in test [4]; 4.39 in test [5].

For the compound `O=c1c2nnnn2c2cnc(Nc3ccc(N4CCSCC4)cc3)nc2n1C1CCCC1`, the pIC50 in test [1] is less than 4.30; in test [2] it was 4.43; in test [3] it was less than 4.30; in test [4], less than 4.30; in test [5] it was less than 4.30.

With `Cc1nnc2c(=O)n(C3CCCC3)c3nc(Nc4ccc(N5CCC(C)CC5)cc4)ncc3n12`, the pIC50 was less than 4.30 in test [1]; less than 4.30 in test [2]; less than 4.30 in test [3]; less than 4.30 in test [4]; 4.95 in test [5].

Take `Cc1nnc2c(=O)n(C3CCCC3)c3nc(Nc4ccc(NC5CCCC5)cc4)ncc3n12`: the pIC50 is less than 4.30 in test [1]; less than 4.30 in test [2]; less than 4.30 in test [3]; 5.03 in test [4]; less than 4.30 in test [5].

As for `CC1CCN(c2ccc(Nc3ncc4c(n3)n(C3CCCC3)c(=O)c3nncn34)cc2)CC1`, the pIC50 in test [1] was less than 4.30; in test [2] it was 5.31; in test [3] it was less than 4.30; in test [4], 5.48; in test [5], 4.92.

As for `O=c1c2nncn2c2cnc(Nc3ccc(N4CCC(O)CC4)cc3)nc2n1C1CCCC1`, the pIC50 in test [1] is less than 4.30; in test [2] it was 5.09; in test [3] it was less than 4.30; in test [4], 4.38; in test [5] it was 4.44.

`O=c1c2nnnn2c2cnc(Nc3ccc(N4CCC(O)CC4)cc3)nc2n1C1CCCC1`: the pIC50 in test [1] was less than 4.30; in test [2], 4.27; in test [3] it was less than 4.30; in test [4], less than 4.30; in test [5], 4.44.

With `CN(C)c1ccc(Nc2ncc3c(n2)n(C2CCCC2)c(=O)c2nnnn23)cc1`, the pIC50 in test [1] was less than 4.30; in test [2] it was less than 4.30; in test [3], 5.59; in test [4], 5.00; in test [5], less than 4.30.

With `CN(C)c1ccc(Nc2ncc3c(n2)n(C2CCCC2)c(=O)c2nncn23)cc1`, the pIC50 was less than 4.30 in test [1]; less than 4.30 in test [2]; 5.14 in test [3]; 5.41 in test [4]; 4.72 in test [5].

With `CC1CCN(c2ccc(Nc3ncc4c(n3)n(C3CCCC3)c(=O)c3nnnn34)cc2)CC1`, the pIC50 is less than 4.30 in test [1]; less than 4.30 in test [2]; less than 4.30 in test [3]; 5.31 in test [4]; less than 4.30 in test [5].

For `O=c1c2nnnn2c2cnc(Nc3ccc(NC4CCCC4)cc3)nc2n1C1CCCC1`, the negative logarithm of the IC50 (pIC50) in test [1] was less than 4.30; in test [2], 5.05; in test [3], less than 4.30; in test [4], less than 4.30; in test [5], 4.36.

Consider `O=c1c2nnnn2c2cnc(Nc3ccc(N4CCN(C5CCCC5)CC4)cc3)nc2n1C1CCCC1`, for which the pIC50 in test [1] was less than 4.30; in test [2] it was less than 4.30; in test [3] it was less than 4.30; in test [4], less than 4.30; in test [5], 5.67.

With `O=c1c2nncn2c2cnc(Nc3ccc(N4CCN(C5CCCC5)CC4)cc3)nc2n1C1CCCC1`, the pIC50 in test [1] is less than 4.30; in test [2], 5.40; in test [3], less than 4.30; in test [4], less than 4.30; in test [5] it was 4.65.

As to `CCN1CCN(c2ccc(Nc3ncc4c(n3)n(C3CCCC3)c(=O)c3nnnn34)cc2)CC1`, the pIC50 is 4.79 in test [1]; less than 4.30 in test [2]; less than 4.30 in test [3]; 5.45 in test [4]; less than 4.30 in test [5].

As to `Cc1nnc2c(=O)n(C3CCCC3)c3nc(Nc4ccc(N5CCCC5)cc4)ncc3n12`, the pIC50 in test [1], in test [2], in test [3], in test [4] and in test [5] was less than 4.30 each time.

`Cc1nnc2c(=O)n(C3CCCC3)c3nc(Nc4ccc(N5CCC(N6CCN(C)CC6)CC5)cc4)ncc3n12`: the pIC50 in test [1] was less than 4.30; in test [2], 5.23; in test [3] it was 5.49; in test [4], 5.62; in test [5], 4.92.

As for `Cc1nnc2c(=O)n(C3CCCC3)c3nc(Nc4ccc(N5CCOCC5)cc4)ncc3n12`, the negative logarithm of the IC50 (pIC50) in test [1] is less than 4.30; in test [2], less than 4.30; in test [3] it was less than 4.30; in test [4], 5.37; in test [5] it was 5.05.

`O=c1c2nncn2c2cnc(Nc3ccc(N4CCN(CCO)CC4)cc3)nc2n1C1CCCC1`: the pIC50 in test [1] was 4.72; in test [2] it was less than 4.30; in test [3], 5.72; in test [4], 5.01; in test [5], 5.01.

Consider `O=c1c2nnnn2c2cnc(Nc3ccc(N4CCOCC4)cc3)nc2n1C1CCCC1`, for which the pIC50 in test [1] was less than 4.30; in test [2] it was 4.31; in test [3], less than 4.30; in test [4], 5.32; in test [5], 4.36.

In the case of `O=c1c2nncn2c2cnc(Nc3ccc(N4CCCC4)cc3)nc2n1C1CCCC1`, the pIC50 in test [1] is 4.95; in test [2] it was less than 4.30; in test [3], less than 4.30; in test [4] it was 5.25; in test [5], 4.31.

Consider `Cc1nnc2c(=O)n(C3CCCC3)c3nc(Nc4ccc(N(C)C)cc4)ncc3n12`, for which the pIC50 in test [1] was less than 4.30; in test [2], less than 4.30; in test [3] it was less than 4.30; in test [4], 5.05; in test [5], 4.54.

`O=c1c2nncn2c2cnc(Nc3ccc(N4CCOCC4)cc3)nc2n1C1CCCC1`: the pIC50 in test [1] is less than 4.30; in test [2], 5.46; in test [3], less than 4.30; in test [4], 4.41; in test [5], 5.05.
